Patent publication US10098889B2, “Complexes and salts of dihydropyrimidine derivatives and their application in pharmaceuticals” (SUNSHINE LAKE PHARMA CO., LTD., priority 2015, dated 2018)

Experiments:
Format in all cases: physicochemical
[1] = High temperature test (stability study)
Procedure: (§1) High temperature test: an appropriate amount of sample was put in a weighing bottle in the form of a thin layer of ≤5 mm, under a temperature of 60° C. for 10 days. Appearance, impurity and purity of the samples were tested respectively at the 5th and 10th day. […] If the sample has no significant change occurred at 60° C., it is not necessary to do the experiment under the condition of 40° C.
(§2) Experimental results of stability study of the compound of (S)-4-(((R)-6-(2-chloro-4-fluorophenyl)-5-(methoxycarbonyl)-2-(thiazol-2-yl)-3,6-dihydropyrimidin-4-yl)methyl)morpholine-3-carboxylic acid amorphous and the complex of (S)-4-(((R)-6-(2-chloro-4-fluorophenyl)-5-(methoxycarbonyl)-2-(thiazol-2-yl)-1,6-dihydropyrimidin-4-yl)methyl)morpholine-3-carboxylic acid and L-tartaric acid and its various salt forms under high temperature, high humidity and illumination conditions are shown in Table 4.

[2] = High humidity test (stability study); conditions: 25° C.
Procedure: (§3) High humidity test: an appropriate amount of sample was put in a weighing bottle in the form of a thin layer of ≤5 mm, under a temperature of 25° C. for 10 days. Appearance, impurity and purity were tested respectively at the 5th and 10th day. If the moisture-absorption weight of the sample gains more than 5%, then the sample needs to be retested in the same manner under the conditions of 25° C. and RH75%±5%. If the moisture-absorption weight of the sample gains less than 5%, and other results meets the requirements, it is not necessary to do the experiment any more. (Note: the weighing bottle should be presaturated for one day by putting it into the humidistat (or a dryer containing a saturated solution of potassium nitrate) before high humidity test, then weighing the sample and weighing bottle together, and record the weight.)
as §2

[3] = Illumination test (stability study)
Procedure: (§4) Illumination test: an appropriate amount of sample was put in a weighing bottle in the form of a thin layer of ≤5 mm, under a […] for 13 days. Appearance, impurity and purity of the samples were tested respectively at the 5th and 13th day.
as §2

[4] = Stability studies under high temperature, high humidity and illumination conditions (overall assessment); conditions: for Stability under high temperature, high humidity and illumination condition (in words): compared with amorphous compound (I)
Procedure: as §1, §3, §4

[5] = Experimental study of hygroscopicity; conditions: for Weighting percentage of moisture absorption (%): constant humidity
Procedure: A dry glass weighing bottle with a plug was placed in a suitable thermostatic drier at 25° C.±1° C. (ammonium chloride and saturated solution of ammonium sulfate were placed on the bottom) on the day before the experiment, and weighed precisely. The propriate amount of the sample was plated into the weighing bottle, wherein the thickness of the sample typically is about 1 mm, and weighed precisely (m2). The weighing bottle was open and placed with the plug in the above constant temperature and humidity condition for 24 hours. The capped weighing bottle was weighed precisely (m3), and the weight gain percentage was calculated (%).
Test method: according to the Ph. Eur. <5.11>; Ch. P. 2010; II appendix XIX J; Weighting percentage of moisture absorption (%)=(m3−m2)/(m2−m1)×100%
Hygroscopicity characteristics: weighting percentage of moisture absorption
Judgement of Hygroscopicity Result:
(1) Air slaking: absorbing enough water to form liquid
(2) Of quite hygroscopicity: not less than 15%
(3) Of hygroscopicity: less than 15% but not less 2%
(4) Of slight hygroscopicity: less than 2% but not less than 0.2%

Solubility (HPLC) = experiment: Solubility (HPLC)
Procedure: The solubility disclosed herein was measured by Aglient 1200 high performance liquid chromatograph VWD detector. The chromatographic column model is Waters Xbridge-C18 (4.6×150 mm, […]). The detection wavelength was 250 nm, the flow rate was 1.0 mL/minute, the column temperature was 35° C., the mobile phase was acetonitrile water (v/v=40/60).

[6] = High temperature, 60° C., 5 days
[7] = High temperature, 60° C., 10 days

Compound | Appearance ([1]; 0 days) | Purity (%) ([1]; 0 days) | Total impurity (%) ([1]; 0 days) | Appearance [1, 6] | Purity (%) [1, 6] | Total impurity (%) [1, 6] | Appearance [1, 7] | Purity (%) [1, 7] | Total impurity (%) [1, 7] | Appearance ([2]; 5 days) | Purity (%) ([2]; 5 days) | Total impurity (%) ([2]; 5 days) | Appearance ([2]; 10 days) | Purity (%) ([2]; 10 days) | Total impurity (%) ([2]; 10 days) | Appearance ([3]; 5 days) | Purity (%) ([3]; 5 days) | Total impurity (%) ([3]; 5 days) | Appearance ([3]; 13 days) | Purity (%) ([3]; 13 days) | also measured
COC(=O)C1=C(CN2CCOC[C@H]2C(=O)O)N=C(c2nccs2)N[C@H]1c1ccc(F)cc1Cl.Cl [(S)-4-(((R)-6-(2-chloro-4-fluorophenyl)-5-(methoxycarbonyl)-2-(thiazol-2-yl)-1,6-dihydropyrimidin-4-yl)methyl)morpholine-3-carboxylic Acid Hydrochloride] | yellow | 99.63% | 0.37% | yellow | 99.63% | 0.37% | yellow | 99.43% | 0.57% | yellow | 99.65% | 0.35% | yellow | 99.59% | 0.41% | yellow | 97.59% | 2.41% | yellow | 97.47% | Total impurity (%) ([3]; 13 days): 2.53%; Stability under high temperature, high humidity and illumination condition (in words) [4]: better stability
COC(=O)C1=C(CN2CCOC[C@H]2C(=O)O)N=C(c2nccs2)N[C@H]1c1ccc(F)cc1Cl.O=C(O)C(O)C(O)C(=O)O [Complex of (S)-4-(((R)-6-(2-chloro-4-fluorophenyl)-5-(methoxycarbonyl)-2-(thiazol-2-yl)-1,6-dihydropyrimidin-4-yl)methyl)morpholine-3-carboxylic Acid and L-tartaric Acid] | yellow | 99.85% | 0.15% | yellow | 99.83% | 0.17% | yellow | 99.84% | 0.16% | yellow | 99.84% | 0.16% | yellow | 99.82% | 0.18% | yellow | 99.86% | 0.14% | yellow | 99.84% | oxide impurities ([1]; preparation purity, from Table 4): less than 0.2%; Total impurity (%) ([3]; 13 days): 0.16%; Hygroscopicity (in words) [5]: much smaller; Judgement of hygroscopicity result ([5]; 25° C.±1° C., 24 hours): of no or little hygroscopicity; Weighting percentage of moisture absorption (%) ([5]; 25° C.±1° C., 24 hours, listed as Crystalline form I(A) of the complex of compound (Ia) and L-tartaric acid): 0.029%; Weighting percentage of moisture absorption (%) ([5]; 25° C.±1° C., 24 hours, listed as crystalline form I(A) of the complex of compound (Ia) and L-tartaric acid): 0.029%; Stability under high temperature, high humidity and illumination condition (in words) [4]: best stability; Change of appearance and purity under high temperature, high humidity and illumination condition ([4]; listed as L-tartaric acid complex having crystalline form I(A)): basically unchanged; Change of appearance and purity under high temperature, high humidity and illumination condition ([4]; listed as complex formed from compound (I) and L-tartaric acid): unchanged substantially; Solubility (in words) (Solubility (HPLC)): good solubility
Br.COC(=O)C1=C(CN2CCOC[C@H]2C(=O)O)N=C(c2nccs2)N[C@H]1c1ccc(F)cc1Cl [(S)-4-(((R)-6-(2-chloro-4-fluorophenyl)-5-(methoxycarbonyl)-2-(thiazol-2-yl)-1,6-dihydropyrimidin-4-yl)methyl)morpholine-3-carboxylic Acid Hydrobromide] | yellow | 99.70% | 0.30% | yellow | 99.69% | 0.31% | yellow | 99.63% | 0.37% | yellow | 99.68% | 0.32% | yellow | 99.64% | 0.36% | yellow | 97.63% | 2.37% | yellow | 96.06% | Total impurity (%) ([3]; 13 days): 3.94%; Stability under high temperature, high humidity and illumination condition (in words) [4]: better stability
COC(=O)C1=C(CN2CCOC[C@H]2C(=O)O)NC(c2nccs2)=N[C@H]1c1ccc(F)cc1Cl [(S)-4-(((R)-6-(2-chloro-4-fluorophenyl)-5-(methoxycarbonyl)-2-(thiazol-2-yl)-3,6-dihydropyrimidin-4-yl)methyl)morpholine-3-carboxylic Acid] | a yellow | 97.54% | 2.46% | a yellow | 96.99% | 3.01% | a yellow | 95.65% | 4.35% | a yellow | 97.51% | 2.49% | a yellow | 97.42% | 2.58% | a yellow | 93.72% | 6.28% | a yellow | 90.56% | Total impurity (%) ([3]; 13 days): 9.44%; Hygroscopicity (in words) [5]: certain hygroscopicity; Weighting percentage of moisture absorption (%) ([5]; 25° C.±1° C., 24 hours, listed as Compound (I) prepared by Example 1): 1.441%; Weighting percentage of moisture absorption (%) ([5]; 25° C.±1° C., 24 hours, listed as compound (I)): 1.441%
